# Assay results reported in the kinase profiling compilation of Christmann-Franck et al. (2016).
# Experiments:
# Assay in all cases: radiometric filter-binding kinase assay
# [1] = target: PRKCA (human) (UniProt P17252); conditions: ATP 100 µM
# [2] = target: GSK3B (human) (UniProt P49841); conditions: ATP 100 µM
# [3] = target: MAPKAPK2 (human) (UniProt P49137); conditions: ATP 100 µM
# [4] = system: RPS6KB1 (human), P23443 [T412E]; conditions: ATP 100 µM
# [5] = target: CHEK1 (human) (UniProt O14757); conditions: ATP 100 µM
# [6] = system: PHKG1 or PHKG2 (rabbit); conditions: ATP 100 µM, accession and sequence are those of the human protein
# [7] = system: MAP2K1 (rabbit); conditions: ATP 100 µM, accession and sequence are those of the human protein
# [8] = system: RPS6KA1 (rat); conditions: ATP 100 µM, accession and sequence are those of the human protein
# [9] = target: LCK (human) (UniProt P06239); conditions: ATP 100 µM
# [10] = target: MAPK12 (human) (UniProt P53778); conditions: ATP 100 µM
# [11] = target: MYLK (human) (UniProt Q15746); conditions: ATP 100 µM
# [12] = target: MAPK11 (human) (UniProt Q15759); conditions: ATP 100 µM
# [13] = system: ROCK2 (rat); conditions: ATP 100 µM, accession and sequence are those of the human protein
# [14] = target: MAPKAPK5 (human) (UniProt Q8IW41); conditions: ATP 100 µM
# [15] = system: CSNK1A1 (rat); conditions: ATP 100 µM, accession and sequence are those of the human protein
# [16] = target: MAPK13 (human) (UniProt O15264); conditions: ATP 100 µM
# [17] = target: CSNK2A1 or CSNK2A2 (human) (UniProt P19784+P68400); conditions: ATP 100 µM
# [18] = system: PRKAA1 or PRKAA2 (rat); conditions: ATP 100 µM, accession and sequence are those of the human protein
# [19] = system: MAPK1 (mouse); conditions: ATP 100 µM, accession and sequence are those of the human protein
# [20] = target: MAPK14 (human) (UniProt Q16539); conditions: ATP 100 µM
# [21] = target: CDK2 CCNA2 (human) (UniProt P24941+P20248); conditions: ATP 100 µM
# [22] = target: AKT1 (human) (UniProt P31749); conditions: ATP 100 µM
# [23] = system: DYRK1A (rat); conditions: ATP 100 µM, accession and sequence are those of the human protein
# [24] = target: RPS6KA5 KD1 KD2 (human) (UniProt O75582); conditions: ATP 100 µM
# [25] = target: MYLK2 (human) (UniProt Q9H1R3); conditions: ATP 100 µM
# [26] = target: CSK (human) (UniProt P41240); conditions: ATP 100 µM
# [27] = target: MAPK8 (human) (UniProt P45983); conditions: ATP 100 µM
# [28] = target: PDPK1 (human) (UniProt O15530); conditions: ATP 100 µM
# [29] = system: SGK1 (human), O00141 [S422D]; conditions: ATP 100 µM
# [30] = system: PRKACA or PRKACB (cow); conditions: accession and sequence are those of the human protein
# [31] = target: PRKG1 (human) (UniProt Q13976); conditions: compound 10.0 µM; ATP 100 µM
# [32] = target: RPS6KA1 (human) (UniProt Q15418); conditions: ATP 100 µM
# Sequence of MAPK13 (human) (O15264 whole entry, looked up): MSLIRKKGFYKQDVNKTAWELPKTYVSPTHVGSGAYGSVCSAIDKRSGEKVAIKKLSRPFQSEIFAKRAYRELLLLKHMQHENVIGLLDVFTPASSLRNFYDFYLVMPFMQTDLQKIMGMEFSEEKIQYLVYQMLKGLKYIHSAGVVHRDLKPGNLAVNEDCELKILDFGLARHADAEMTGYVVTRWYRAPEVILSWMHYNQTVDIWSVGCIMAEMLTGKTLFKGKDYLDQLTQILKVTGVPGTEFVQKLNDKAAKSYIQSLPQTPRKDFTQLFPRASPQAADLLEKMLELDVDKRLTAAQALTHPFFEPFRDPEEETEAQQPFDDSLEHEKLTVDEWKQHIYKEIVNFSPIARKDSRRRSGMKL
# Sequence of MAPK12 (human) (P53778 whole entry, looked up): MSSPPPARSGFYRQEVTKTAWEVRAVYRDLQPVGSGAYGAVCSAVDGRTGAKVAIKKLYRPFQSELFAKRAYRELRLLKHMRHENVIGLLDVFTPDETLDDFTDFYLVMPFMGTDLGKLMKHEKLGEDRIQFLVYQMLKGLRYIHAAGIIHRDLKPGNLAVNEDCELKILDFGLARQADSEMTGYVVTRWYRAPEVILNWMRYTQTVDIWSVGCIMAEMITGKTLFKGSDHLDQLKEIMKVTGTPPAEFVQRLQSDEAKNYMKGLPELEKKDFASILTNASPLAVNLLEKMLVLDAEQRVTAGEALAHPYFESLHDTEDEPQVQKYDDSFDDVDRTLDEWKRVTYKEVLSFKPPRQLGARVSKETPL
# Sequence of LCK (human) (P06239 whole entry, looked up): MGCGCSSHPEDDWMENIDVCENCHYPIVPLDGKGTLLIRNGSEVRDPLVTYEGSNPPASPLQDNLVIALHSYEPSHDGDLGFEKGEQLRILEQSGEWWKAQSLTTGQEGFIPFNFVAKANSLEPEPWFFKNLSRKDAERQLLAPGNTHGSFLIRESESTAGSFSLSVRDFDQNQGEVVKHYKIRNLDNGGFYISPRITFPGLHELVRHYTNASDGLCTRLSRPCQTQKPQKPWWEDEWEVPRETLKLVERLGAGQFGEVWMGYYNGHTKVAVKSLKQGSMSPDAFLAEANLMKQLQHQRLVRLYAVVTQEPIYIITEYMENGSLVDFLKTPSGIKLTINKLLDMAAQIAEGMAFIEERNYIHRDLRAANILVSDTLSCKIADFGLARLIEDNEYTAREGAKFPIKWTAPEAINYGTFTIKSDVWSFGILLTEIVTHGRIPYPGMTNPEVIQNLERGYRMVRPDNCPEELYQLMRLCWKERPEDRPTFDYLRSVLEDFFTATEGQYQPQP
# Sequence of GSK3B (human) (P49841 whole entry, looked up): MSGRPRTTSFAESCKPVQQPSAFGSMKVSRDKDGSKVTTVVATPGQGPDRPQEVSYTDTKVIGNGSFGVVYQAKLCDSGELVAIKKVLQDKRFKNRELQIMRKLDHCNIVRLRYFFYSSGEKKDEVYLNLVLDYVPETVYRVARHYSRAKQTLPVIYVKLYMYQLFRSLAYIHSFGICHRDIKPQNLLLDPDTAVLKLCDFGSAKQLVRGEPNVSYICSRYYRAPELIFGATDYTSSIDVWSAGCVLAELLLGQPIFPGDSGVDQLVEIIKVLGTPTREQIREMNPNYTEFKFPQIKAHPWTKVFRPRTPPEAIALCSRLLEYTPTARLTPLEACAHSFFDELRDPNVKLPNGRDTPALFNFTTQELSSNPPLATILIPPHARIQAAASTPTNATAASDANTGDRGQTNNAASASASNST
# Sequence of CDK2 CCNA2 (human) (P20248 whole entry, looked up, other chains not shown): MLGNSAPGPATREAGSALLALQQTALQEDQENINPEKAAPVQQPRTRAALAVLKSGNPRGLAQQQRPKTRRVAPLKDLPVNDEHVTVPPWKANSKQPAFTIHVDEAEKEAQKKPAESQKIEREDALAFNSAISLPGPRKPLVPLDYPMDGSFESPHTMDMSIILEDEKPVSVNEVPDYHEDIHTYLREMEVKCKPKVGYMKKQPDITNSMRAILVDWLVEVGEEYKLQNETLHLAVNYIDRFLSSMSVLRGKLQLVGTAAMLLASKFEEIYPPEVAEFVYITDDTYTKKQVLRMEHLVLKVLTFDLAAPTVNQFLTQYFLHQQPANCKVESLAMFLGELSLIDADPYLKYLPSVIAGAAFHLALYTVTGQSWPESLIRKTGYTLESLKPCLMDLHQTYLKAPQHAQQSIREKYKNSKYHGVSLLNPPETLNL
# Sequence of PDPK1 (human) (O15530 whole entry, looked up): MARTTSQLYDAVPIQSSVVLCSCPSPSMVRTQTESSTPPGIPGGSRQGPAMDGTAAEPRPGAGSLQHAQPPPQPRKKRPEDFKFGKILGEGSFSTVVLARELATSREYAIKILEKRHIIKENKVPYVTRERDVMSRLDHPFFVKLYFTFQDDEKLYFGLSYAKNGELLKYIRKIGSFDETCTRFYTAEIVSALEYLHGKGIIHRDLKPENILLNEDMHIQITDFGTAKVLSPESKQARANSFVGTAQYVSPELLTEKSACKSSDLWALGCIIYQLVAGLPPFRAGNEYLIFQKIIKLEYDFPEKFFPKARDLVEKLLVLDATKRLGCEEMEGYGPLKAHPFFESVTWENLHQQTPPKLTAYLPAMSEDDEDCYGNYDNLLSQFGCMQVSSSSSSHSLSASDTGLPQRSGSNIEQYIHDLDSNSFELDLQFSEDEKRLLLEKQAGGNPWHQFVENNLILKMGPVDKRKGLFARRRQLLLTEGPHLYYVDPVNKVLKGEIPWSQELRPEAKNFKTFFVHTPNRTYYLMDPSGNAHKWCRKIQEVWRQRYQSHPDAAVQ
# Sequence of MAPKAPK2 (human) (P49137 whole entry, looked up): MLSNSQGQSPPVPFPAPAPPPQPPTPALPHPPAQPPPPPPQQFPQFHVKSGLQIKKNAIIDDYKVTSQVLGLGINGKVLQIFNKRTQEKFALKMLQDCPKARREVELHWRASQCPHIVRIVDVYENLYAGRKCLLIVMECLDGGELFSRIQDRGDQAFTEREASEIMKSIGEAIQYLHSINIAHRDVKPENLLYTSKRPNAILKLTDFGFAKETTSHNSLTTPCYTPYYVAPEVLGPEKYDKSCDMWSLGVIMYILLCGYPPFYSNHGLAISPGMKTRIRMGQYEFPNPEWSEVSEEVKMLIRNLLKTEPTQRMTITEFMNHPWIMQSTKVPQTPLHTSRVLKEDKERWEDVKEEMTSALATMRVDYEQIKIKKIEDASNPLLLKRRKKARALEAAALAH
# Sequence of AKT1 (human) (P31749 whole entry, looked up): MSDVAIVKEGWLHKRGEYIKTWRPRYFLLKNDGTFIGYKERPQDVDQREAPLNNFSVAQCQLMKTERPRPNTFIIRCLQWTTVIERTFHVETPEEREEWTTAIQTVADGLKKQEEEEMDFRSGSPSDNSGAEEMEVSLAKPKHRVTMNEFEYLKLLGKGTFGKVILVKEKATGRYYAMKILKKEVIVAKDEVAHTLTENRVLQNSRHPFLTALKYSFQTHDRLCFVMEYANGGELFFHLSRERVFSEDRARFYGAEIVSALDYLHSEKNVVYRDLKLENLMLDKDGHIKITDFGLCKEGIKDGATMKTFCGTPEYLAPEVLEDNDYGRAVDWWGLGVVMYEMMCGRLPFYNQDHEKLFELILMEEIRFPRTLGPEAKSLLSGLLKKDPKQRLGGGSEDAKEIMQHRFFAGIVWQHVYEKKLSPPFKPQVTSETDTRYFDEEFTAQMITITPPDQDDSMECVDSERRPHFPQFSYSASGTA
# Sequence of SGK1 (human), O00141 [S422D] (O00141 whole entry S422D, looked up): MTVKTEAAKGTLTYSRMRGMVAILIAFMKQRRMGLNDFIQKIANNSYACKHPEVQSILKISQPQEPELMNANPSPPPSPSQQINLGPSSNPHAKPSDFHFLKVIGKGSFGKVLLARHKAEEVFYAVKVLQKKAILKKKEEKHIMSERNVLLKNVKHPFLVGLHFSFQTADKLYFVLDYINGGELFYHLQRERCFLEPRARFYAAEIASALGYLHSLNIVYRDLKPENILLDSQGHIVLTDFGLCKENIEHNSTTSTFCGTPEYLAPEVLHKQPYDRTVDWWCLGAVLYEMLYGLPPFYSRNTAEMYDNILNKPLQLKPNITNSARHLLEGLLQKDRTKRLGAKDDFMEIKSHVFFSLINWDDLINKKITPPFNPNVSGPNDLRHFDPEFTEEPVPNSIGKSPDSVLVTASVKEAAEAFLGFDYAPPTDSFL
smiles,measurement,setting,value
O=S(=O)(c1cccc2c(I)cccc12)N1CCCNCC1,residual activity,[1]; compound 20.0 µM,85%
same,residual activity,[2]; compound 20.0 µM,107%
same,residual activity,[3]; compound 20.0 µM,93%
same,residual activity,[4]; compound 20.0 µM,74%
same,residual activity,[5]; compound 20.0 µM,94%
same,residual activity,[6]; compound 20.0 µM,85%
same,residual activity,[7]; compound 20.0 µM,102%
same,residual activity,[8]; compound 20.0 µM,99%
same,residual activity,[9]; compound 20.0 µM,87%
same,residual activity,[10]; compound 20.0 µM,95%
same,residual activity,[11]; compound 20.0 µM,10%
same,residual activity,[12]; compound 20.0 µM,89%
same,residual activity,[13]; compound 20.0 µM,74%
same,residual activity,[14]; compound 20.0 µM,78%
same,residual activity,[15]; compound 20.0 µM,106%
same,residual activity,[16]; compound 20.0 µM,75%
same,residual activity,[17]; compound 20.0 µM,83%
same,residual activity,[18]; compound 20.0 µM,82%
same,residual activity,[19]; compound 20.0 µM,85%
same,residual activity,[20]; compound 20.0 µM,100%
same,residual activity,[21]; compound 20.0 µM,73%
same,residual activity,[22]; compound 20.0 µM,88%
same,residual activity,[23]; compound 20.0 µM,66%
same,residual activity,[24]; compound 20.0 µM,59%
same,residual activity,[25]; compound 20.0 µM,63%
same,residual activity,[26]; compound 20.0 µM,94%
same,residual activity,[27]; compound 20.0 µM,97%
same,residual activity,[28]; compound 20.0 µM,107%
same,residual activity,[29]; compound 20.0 µM,101%
same,residual activity,[30]; compound 20.0 µM,85%
COC(=O)[C@@]1(OC)C[C@@H]2O[C@]1(C)n1c3ccccc3c3c4c(c5c6ccccc6n2c5c31)C(=O)N(C)C4,residual activity,[1]; compound 10.0 µM,102%
same,residual activity,[2]; compound 10.0 µM,52%
same,residual activity,[3]; compound 10.0 µM,71%
same,residual activity,[4]; compound 10.0 µM,90%
same,residual activity,[5]; compound 10.0 µM,93%
same,residual activity,[6]; compound 10.0 µM,99%
same,residual activity,[7]; compound 10.0 µM,99%
same,residual activity,[8]; compound 10.0 µM,105%
same,residual activity,[9]; compound 10.0 µM,94%
same,residual activity,[10]; compound 10.0 µM,103%
same,residual activity,[12]; compound 10.0 µM,100%
same,residual activity,[13]; compound 10.0 µM,97%
same,residual activity,[14]; compound 10.0 µM,83%
same,residual activity,[15]; compound 10.0 µM,83%
same,residual activity,[16]; compound 10.0 µM,105%
same,residual activity,[17]; compound 10.0 µM,98%
same,residual activity,[18]; compound 10.0 µM,90%
same,residual activity,[19]; compound 10.0 µM,106%
same,residual activity,[31],109%
same,residual activity,[20]; compound 10.0 µM,102%
same,residual activity,[21]; compound 10.0 µM,94%
same,residual activity,[22]; compound 10.0 µM,83%
same,residual activity,[23]; compound 10.0 µM,112%
same,residual activity,[24]; compound 10.0 µM,74%
same,residual activity,[26]; compound 10.0 µM,93%
same,residual activity,[27]; compound 10.0 µM,99%
same,residual activity,[28]; compound 10.0 µM,114%
same,residual activity,[29]; compound 10.0 µM,72%
same,residual activity,[30]; compound 10.0 µM,102%
O=C(O[C@@H]1Cc2c(O)cc(O)cc2O[C@@H]1c1cc(O)c(O)c(O)c1)c1cc(O)c(O)c(O)c1,residual activity,[1]; compound 10.0 µM,76%
same,residual activity,[2]; compound 10.0 µM,78%
same,residual activity,[3]; compound 10.0 µM,79%
same,residual activity,[4]; compound 10.0 µM,87%
same,residual activity,[5]; compound 10.0 µM,79%
same,residual activity,[6]; compound 10.0 µM,78%
same,residual activity,[7]; compound 10.0 µM,94%
same,residual activity,[8]; compound 10.0 µM,109%
same,residual activity,[9]; compound 10.0 µM,89%
same,residual activity,[10]; compound 10.0 µM,85%
same,residual activity,[12]; compound 10.0 µM,87%
same,residual activity,[13]; compound 10.0 µM,53%
same,IC50,[14],1000 nM
same,residual activity,[14]; compound 10.0 µM,10%
same,residual activity,[15]; compound 10.0 µM,105%
same,residual activity,[16]; compound 10.0 µM,60%
same,residual activity,[17]; compound 10.0 µM,105%
same,residual activity,[18]; compound 10.0 µM,101%
same,residual activity,[19]; compound 10.0 µM,53%
same,residual activity,[20]; compound 10.0 µM,105%
same,residual activity,[21]; compound 10.0 µM,97%
same,residual activity,[22]; compound 10.0 µM,87%
same,IC50,[23],330 nM
same,residual activity,[23]; compound 10.0 µM,9%
same,residual activity,[24]; compound 10.0 µM,88%
same,residual activity,[26]; compound 10.0 µM,76%
same,residual activity,[27]; compound 10.0 µM,76%
same,residual activity,[28]; compound 10.0 µM,50%
same,residual activity,[29]; compound 10.0 µM,104%
same,residual activity,[30]; compound 10.0 µM,109%
CC(C)[C@H](CO)Nc1nc(Nc2cccc(Cl)c2)c2ncn(C(C)C)c2n1,residual activity,[2]; compound 10.0 µM,84%
same,residual activity,[3]; compound 10.0 µM,97%
same,residual activity,[4]; compound 10.0 µM,79%
same,residual activity,[5]; compound 10.0 µM,78%
same,residual activity,[6]; compound 10.0 µM,36%
same,residual activity,[7]; compound 10.0 µM,80%
same,residual activity,[8]; compound 10.0 µM,15%
same,residual activity,[9]; compound 10.0 µM,22%
same,residual activity,[10]; compound 10.0 µM,105%
same,residual activity,[12]; compound 10.0 µM,117%
same,residual activity,[13]; compound 10.0 µM,57%
same,residual activity,[14]; compound 10.0 µM,76%
same,residual activity,[15]; compound 10.0 µM,75%
same,residual activity,[16]; compound 10.0 µM,98%
same,residual activity,[17]; compound 10.0 µM,95%
same,residual activity,[18]; compound 10.0 µM,59%
same,residual activity,[19]; compound 10.0 µM,26%
same,IC50,[32],1490 nM
same,residual activity,[20]; compound 10.0 µM,101%
same,residual activity,[21]; compound 10.0 µM,2%
same,residual activity,[22]; compound 10.0 µM,88%
same,IC50,[23],300 nM
same,residual activity,[23]; compound 10.0 µM,6%
same,residual activity,[24]; compound 10.0 µM,88%
same,residual activity,[26]; compound 10.0 µM,20%
same,residual activity,[27]; compound 10.0 µM,84%
same,residual activity,[28]; compound 10.0 µM,103%
same,residual activity,[29]; compound 10.0 µM,91%
same,residual activity,[30]; compound 10.0 µM,82%
CN(C)S(=O)(=O)c1ccc2c(c1)/C(=C/c1cc3c([nH]1)CCCC3)C(=O)N2,residual activity,[1]; compound 10.0 µM,90%
same,residual activity,[2]; compound 10.0 µM,83%
same,residual activity,[3]; compound 10.0 µM,96%
same,residual activity,[4]; compound 10.0 µM,71%
same,residual activity,[5]; compound 10.0 µM,66%
same,residual activity,[6]; compound 10.0 µM,21%
same,residual activity,[7]; compound 10.0 µM,82%
same,residual activity,[8]; compound 10.0 µM,27%
same,residual activity,[9]; compound 10.0 µM,8%
same,residual activity,[10]; compound 10.0 µM,75%
same,residual activity,[12]; compound 10.0 µM,90%
same,residual activity,[13]; compound 10.0 µM,43%
same,residual activity,[14]; compound 10.0 µM,95%
same,residual activity,[15]; compound 10.0 µM,66%
same,residual activity,[16]; compound 10.0 µM,78%
same,residual activity,[17]; compound 10.0 µM,93%
same,residual activity,[18]; compound 10.0 µM,14%
same,residual activity,[19]; compound 10.0 µM,102%
same,residual activity,[20]; compound 10.0 µM,70%
same,residual activity,[21]; compound 10.0 µM,54%
same,residual activity,[22]; compound 10.0 µM,100%
same,residual activity,[23]; compound 10.0 µM,23%
same,residual activity,[24]; compound 10.0 µM,94%
same,residual activity,[26]; compound 10.0 µM,89%
same,residual activity,[27]; compound 10.0 µM,103%
same,residual activity,[28]; compound 10.0 µM,94%
same,residual activity,[29]; compound 10.0 µM,70%
same,residual activity,[30]; compound 10.0 µM,73%
O=S(=O)(c1cccc2c(Cl)cccc12)N1CCCNCC1,residual activity,[1]; compound 100.0 µM,80%
same,residual activity,[2]; compound 100.0 µM,107%
same,residual activity,[3]; compound 100.0 µM,106%
same,residual activity,[4]; compound 100.0 µM,27%
same,residual activity,[5]; compound 100.0 µM,103%
same,residual activity,[6]; compound 100.0 µM,79%
same,residual activity,[7]; compound 100.0 µM,95%
same,residual activity,[8]; compound 100.0 µM,44%
same,residual activity,[9]; compound 100.0 µM,116%
same,residual activity,[10]; compound 100.0 µM,98%
same,residual activity,[11]; compound 100.0 µM,25%
same,residual activity,[12]; compound 100.0 µM,98%
same,residual activity,[13]; compound 100.0 µM,23%
same,residual activity,[14]; compound 100.0 µM,91%
same,residual activity,[15]; compound 100.0 µM,103%
same,residual activity,[16]; compound 100.0 µM,86%
same,residual activity,[17]; compound 100.0 µM,69%
same,residual activity,[18]; compound 100.0 µM,61%
same,residual activity,[19]; compound 100.0 µM,101%
same,residual activity,[20]; compound 100.0 µM,94%
same,residual activity,[21]; compound 100.0 µM,75%
same,residual activity,[22]; compound 100.0 µM,76%
same,residual activity,[23]; compound 100.0 µM,38%
same,residual activity,[24]; compound 100.0 µM,14%
same,residual activity,[25]; compound 100.0 µM,54%
same,residual activity,[26]; compound 100.0 µM,96%
same,residual activity,[27]; compound 100.0 µM,102%
same,residual activity,[28]; compound 100.0 µM,113%
same,residual activity,[29]; compound 100.0 µM,84%
same,residual activity,[30]; compound 100.0 µM,71%
